Literature values, collected in patent US20130053422A1, “Antimicrobial Compositions” (priority 2010, published 2013).

Experiments:
Details in all cases: after 5 to 60 minutes
Herpes virus type 1 = tested on: Herpes virus type 1
Vaccinia virus = tested on: Vaccinia virus
bovine parainfluenzae 3 = tested on: bovine parainfluenzae 3

CCCCCCCCCCCC(=O)N[C@@H](CCCN=C(N)N)C(=O)OCC [LAE, lauric arginate]
nearly complete reduction: reduction of Herpes virus type 1 (Herpes virus type 1) | reduction of Vaccinia virus (Vaccinia virus) | reduction of bovine parainfluenzae 3 (bovine parainfluenzae 3)
